# Assay results taken from patent publication US20110027354A1, “ANTI-PA[…]” (priority 2008, published 2011).
# What was measured:
# [1] = system: mice; assay: Conditioned place preference (CPP); type: in vivo; conditions: selegiline or MPPE 2.5 or 5.0 mg/kg i.p., MA 0.5 or 1.0 mg/kg i.p.; vs. saline
# Experimental: For conditioned place preference (CPP) test, mice received an i.p. injection of saline just before entering the […] compartment. MA (0.5 or 1.0 mg/kg, i.p.), selegiline (2.5 or 5.0 mg/kg, i.p.), and MPPE (2.5 or 5.0 mg/kg, i.p.) dissolved in saline was administered immediately before the mice were placed in the white compartment. On day 1, the mice were pre-exposed to the test apparatus for 15 minutes. The guillotine style doors were raised and mice were allowed to move freely between the two compartments. On day 2, the time each mouse spent in each compartment was recorded for 15 minutes. On days 3, 5, 7, 9, 11, and 13, the mice were injected with each drug before being confined to the white compartment, the non-preferred side, for 40 minutes. On day 14, the guillotine doors were raised. The mice were initially placed in the tunnel and the time spent by the mice in the two compartments was recorded for 15 minutes. The scores were calculated from the differences in the time spent in the white compartment in the testing and pre-testing phases. Data were analyzed between 09:00 and 17:00 hours.
# [2] = system: mice; assay: Locomotor activity after repeated treatment with drug alone; type: in vivo; conditions: repeated treatment i.p./day×7, selegiline or MPPE 2.5 or 5.0 mg/kg, MA 0.5 or 1.0 mg/kg
# Experimental: Selegiline or […] was injected (2.5 or 5 mg/kg, i.p.) once a day for 7 consecutive days. Methamphetamine, a positive control, was also administered (0.5 or 1 mg/kg, i.p.) once a day for 7 days.
# Locomotor activity measured for 30 min one day after the last MPTP administration using an automated video-tracking system (Noldus Information Technology, Wagenin, The Netherlands). Eight test boxes (40×40×30 cm high) were operated simultaneously by an IBM computer. Animals were studied individually during locomotion in each test box, where they were adapted for 5 min before starting the experiment. […] The distance traveled in cm by the animals in horizontal locomotor activity was analyzed. Data were collected and analyzed between 09:00 and 17:00 h (Kim et al., 2001).
structure (smiles),measurement,setting,value
"CN[C@@H](C)Cc1ccccc1 [MA, methamphetamine]",conditioned place preference (CPP),[1],significantly increased compared with saline
same,locomotor patterns,[2],typical circling locomotor patterns
same,locomotor activities,[2]; vs. saline,significantly increased
